# Reference: paper PMC10360169 (Frontiers in Immunology, 2023)
# Tested on: Acar3
# Assay type: binding, great reed warbler Acrocephalus arundinaceus
# Details: Table S1; top 94 PSCPL-scoring peptides; SPA, 10µM peptide, 125I β2m, folding over night at 18°C, dissociation measured up to 24 hours at 37°C
row,Sequence,Stability T½ of Acar3 in complex with the peptide
1,AMSAQAAAF [P1],678 min
2,DYQGLPLEF [9-mer peptide],12 min

# Same assay, conditions: Table S5; half-life estimated from dissociation in scintillation proximity assay; Acar3
row,Sequence,"Stability T½ (h), peptide - Acar3"
1,AMSAQAAAF [P1],11.3 h
2,DYQGLPLEF [9-mer peptide],0.2 h
3,TRAPAPFPL [9-mer peptide],0.1 h

# Target: HLA-B*15:01 (Homo sapiens, UniProt P01889, A329T/A93T/A95T/C349S/D201E/D98Y/E187L/E204Q/E69M/E70A/K202T/N87E/Q94N/R155S/R180W/S121R/S35A/S48A/V306I/V36M/Y140S/Y91S)
# Set-up: method as in ref [40]-[42] = [40]; 40 Rasmussen M Harndahl M Kristensen A Nielsen I Jorgensen K Stryhn A . Large Scale analysis of peptide - HLA-I stability . ( 2014 ). || [41]; 41 Harndahl M Lamberth K Justesen S Røder G Madsen M Nielsen M . Large Scale analysis of peptide-HLA class I interactions . ( 2007 ). || [42]; 42 Harndahl M Lamberth K Justesen S Røder G Madsen M Sylvester-Hvid C . Large Scale analysis of peptide-HLA class I interactions . ( 2006 ).
# Details: IEDB; threshold minimum affinity of 500 nM or minimum half-life of 1 h; ref [40]-[42]; cited from earlier work
row,Sequence,binding to HLA-B*15:01
1,AMSAQAAAF [P1],binds

# Tested on: Acar19
# Assay type: binding, great reed warbler Acrocephalus arundinaceus
# Details: Table S5, half-life estimated from dissociation in scintillation proximity assay
row,Sequence,"Stability T½ (h), peptide - Acar19"
1,DYQGLPLEF [9-mer peptide],3.5 h
2,FWPQHFGLI [9-mer peptide],0.1 h
3,FYPPVLQPI [9-mer peptide],0.3 h
4,GFNKLRSTL [9-mer peptide],0.4 h
5,GFPSLESSF [9-mer peptide],0.1 h
6,GYAWIDFDI [9-mer peptide],0.2 h
7,HAATNFREI [9-mer peptide],0.1 h
8,HTAEIQQFF [9-mer peptide],0.3 h
9,HYNAFHWAI [9-mer peptide],0.3 h
10,HYNAFQWAI [9-mer peptide],0.3 h
11,IAAPNMIAV [9-mer peptide],0.1 h
12,IAASNLEQF [9-mer peptide],0.1 h
13,IAKGIDAEF [9-mer peptide],0.1 h
14,IALPVAWLF [9-mer peptide],0.1 h
15,IANTTDHFF [9-mer peptide],0.2 h
16,IASPILFPF [9-mer peptide],0.5 h
17,IFDDLQGSL [9-mer peptide],0.1 h
18,IFPSMYFLM [9-mer peptide],0.1 h
19,IPAPGLGAL [9-mer peptide],0.2 h
20,IPKYLEIEI [9-mer peptide],0.2 h
21,IPNYLEIEI [9-mer peptide],0.6 h
22,IQNALEKAL [9-mer peptide],0.1 h
23,IQNATMDEF [9-mer peptide],0.1 h
24,IQNEIMKPL [9-mer peptide],0.2 h

row,Sequence,"Stability T½ (h), peptide - Acar19"
1,IQNKLSSTF [9-mer peptide],0.2 h
2,ISARGQELF [9-mer peptide],0.1 h
3,ISASLAALF [9-mer peptide],0.1 h
4,ISDPLTSGL [9-mer peptide],0.1 h
5,ITAALAWSL [9-mer peptide],0.1 h
6,ITDWLNFTL [9-mer peptide],0.1 h
7,ITFHNQRDF [9-mer peptide],0.2 h
8,IYAAISYMI [9-mer peptide],0.3 h
9,IYGIFQSTF [9-mer peptide],0.1 h
10,IYTVIYYIF [9-mer peptide],0.2 h
11,IYYWTAWLI [9-mer peptide],0.2 h
12,KASSAWHYF [9-mer peptide],0.2 h
13,KDPENFDHF [9-mer peptide],0.2 h
14,KFHQIEKEF [9-mer peptide],0.3 h
15,KSNGAQQWL [9-mer peptide],0.1 h
16,LAASVFFTF [9-mer peptide],0.2 h
17,LFPELDCFF [9-mer peptide],1.6 h
18,LMNELGVPF [9-mer peptide],0.6 h
19,LRHSTAHLL [9-mer peptide],0.1 h
20,LYIEILRLL [9-mer peptide],0.1 h
21,LYPTFYCLF [9-mer peptide],0.4 h
22,MAMGILHTI [9-mer peptide],0.1 h
23,MFMMIFHFV [9-mer peptide],0.4 h
24,MPARLWLCL [9-mer peptide],0.9 h

row,Sequence,"Stability T½ (h), peptide - Acar19"
1,MSNPLTSPI [9-mer peptide],6.3 h
2,MYLRTIYDL [9-mer peptide],4.0 h
3,MYMALIAAF [9-mer peptide],0.3 h
4,NAFHHPSAV [9-mer peptide],0.1 h
5,NHIRIEYII [9-mer peptide],0.4 h
6,NPLEIYQEI [9-mer peptide],0.8 h
7,NPSVLKILL [9-mer peptide],0.2 h
8,NTARLMAGA [9-mer peptide],0.2 h
9,NTDEIPELI [9-mer peptide],0.2 h
10,NTFAAWLPM [9-mer peptide],0.6 h
11,NVGRILGYV [9-mer peptide],0.5 h
12,NYFNRMFHF [9-mer peptide],0.7 h
13,NYMPYVFTL [9-mer peptide],14.9 h
14,NYNGLLSSI [9-mer peptide],19.1 h
15,QRASNVFDL [9-mer peptide],0.2 h
16,QTSSIEGAW [9-mer peptide],0.1 h
17,QYPAFVLFI [9-mer peptide],0.2 h
18,RPAPATGAL [9-mer peptide],0.3 h
19,SFHIIEWLF [9-mer peptide],0.2 h
20,SFIPIFYQF [9-mer peptide],1.2 h
21,STAPTGSWF [9-mer peptide],0.2 h
22,STYGISEDL [9-mer peptide],0.1 h
23,SYLGLTQPF [9-mer peptide],0.2 h
24,SYLQAIGIL [9-mer peptide],0.1 h

row,Sequence,"Stability T½ (h), peptide - Acar19"
1,SYQALAFDI [9-mer peptide],0.5 h
2,TFMGMNVQF [9-mer peptide],0.1 h
3,TFMYVFSTF [9-mer peptide],0.2 h
4,TNTQNNDWF [9-mer peptide],0.2 h
5,TRAPAPFPL [9-mer peptide],0.1 h
6,TTLSIYFLL [9-mer peptide],0.1 h
7,TYMFTHIDL [9-mer peptide],0.1 h
8,TYSPALNKM [9-mer peptide],0.1 h
9,VMKRNFIDF [9-mer peptide],0.1 h
10,VQHNIKHSF [9-mer peptide],0.1 h
11,VSFSMVGLF [9-mer peptide],0.1 h
12,VTNRHEEKF [9-mer peptide],0.1 h
13,WFGHLASDW [9-mer peptide],0.1 h
14,WYAPVALLF [9-mer peptide],0.2 h
15,YFDPANGKF [9-mer peptide],0.1 h
16,YISPIFIPM [9-mer peptide],0.1 h
17,YNAELLVAL [9-mer peptide],0.2 h
18,YQAGISAAL [9-mer peptide],0.2 h
19,YRSMIAFKL [9-mer peptide],0.1 h
20,YTMELCGAM [9-mer peptide],0.1 h
21,YTYPIAHTA [9-mer peptide],0.1 h
22,YYNAFHWAI [9-mer peptide],0.4 h
23,YYNAFQWAI [9-mer peptide],0.4 h
24,YYSNKVFPI [9-mer peptide],0.2 h
